Reference: ChEMBL document CHEMBL1131189, “Conformationally restricted analogues of 1N,12N-bisethylspermine: synthesis and growth inhibitory effects on human tumor cell lines” (1998)
Blank lines part the entries; values can stand above or below the compound they belong to.

Legend:
DU-145 [1] = assay: Growth inhibitory activity was measured for human DU145 tumor cell line.; assay type: functional; conditions: read-out: ID50 (the source's name)
A549 = assay: Growth inhibitory activity was measured for human A549 tumor cell line.; assay type: functional; conditions: read-out: ID50 (the source's name)
DU-145 [2] = assay: The concentration levels of putrescine (PU) evaluated in DU145 cells treated with the compound concentration of 5 uM on fifth day of treatment.; assay type: functional, cell-based; conditions: Homo sapiens
DU-145 [3] = assay: The concentration levels of putrescine (PU) evaluated in DU145 cells treated with the compound concentration of 5 uM on third day of treatment.; assay type: functional, cell-based; conditions: Homo sapiens
DU-145 [4] = assay: The concentration levels of spermidine (SD) evaluated in DU145 cells treated with the compound concentration of 0.02 uM on fifth day of treatment.; assay type: functional, cell-based; conditions: Homo sapiens
DU-145 [5] = assay: The concentration levels of spermidine (SD) evaluated in DU145 cells treated with the compound concentration of 5 uM on fifth day of treatment.; assay type: functional, cell-based; conditions: Homo sapiens
DU-145 [6] = assay: The concentration levels of spermidine (SD), evaluated in DU145 cells treated with the compound concentration of 0.02 uM on third day of treatment.; assay type: functional, cell-based; conditions: Homo sapiens
DU-145 [7] = assay: The concentration levels of spermidine (SD), evaluated in DU145 cells treated with the compound concentration of 5 uM on third day of treatment.; assay type: functional, cell-based; conditions: Homo sapiens
DU-145 [8] = assay: The concentration levels of analogue evaluated in DU145 cells treated with the compound concentration of 0.02 uM on fifth day of treatment.; assay type: functional, cell-based; conditions: Homo sapiens
DU-145 [9] = assay: The concentration levels of analogue evaluated in DU145 cells treated with the compound concentration of 0.02 uM on third day of treatment.; assay type: functional, cell-based; conditions: Homo sapiens
DU-145 [10] = assay: The concentration levels of analogue evaluated in DU145 cells treated with the compound concentration of 5 uM on fifth day of treatment.; assay type: functional, cell-based; conditions: Homo sapiens
DU-145 [11] = assay: The concentration levels of spermine (SP) evaluated in DU145 cells treated with the compound concentration of 0.02 uM on fifth day of treatment.; assay type: functional, cell-based; conditions: Homo sapiens
DU-145 [12] = assay: The concentration levels of spermine (SP) evaluated in DU145 cells treated with the compound concentration of 5 uM on fifth day of treatment.; assay type: functional, cell-based; conditions: Homo sapiens
DU-145 [13] = assay: The concentration levels of spermine (SP), evaluated in DU145 cells treated with the compound concentration of 5 uM on third day of treatment.; assay type: functional, cell-based; conditions: Homo sapiens
DU-145 [14] = assay: The concentration levels of analogue evaluated in DU145 cells treated with the compound concentration of 5 uM on third day of treatment.; assay type: functional, cell-based; conditions: Homo sapiens
DU-145 [15] = assay: The concentration levels of putrescine (PU) evaluated in DU145 cells treated with the compound concentration of 0.02 uM on fifth day of treatment.; assay type: functional, cell-based; conditions: Homo sapiens
DU-145 [16] = assay: The concentration levels of putrescine (PU) evaluated in DU145 cells treated with the compound concentration of 0.02 uM on third day of treatment.; assay type: functional, cell-based; conditions: Homo sapiens
DU-145 [17] = assay: The concentration levels of spermine (SP), evaluated in DU145 cells treated with the compound concentration of 0.02 uM on third day of treatment.; assay type: functional, cell-based; conditions: Homo sapiens
HT-29 = assay: Growth inhibitory activity was measured for human HT-29 tumor cell line.; assay type: functional; conditions: read-out: ID50 (the source's name)
PC-3 = assay: Growth inhibitory activity was measured for human PC-3 tumor cell line.; assay type: functional; conditions: read-out: ID50 (the source's name)
U-251 = assay: Growth inhibitory activity was measured for human U251MG NCI tumor cell line.; assay type: functional; conditions: read-out: ID50 (the source's name)
MCF7 = assay: Growth inhibitory activity was measured for human MCF-7 tumor cell line.; assay type: functional; conditions: read-out: ID50 (the source's name)

IC50 (DU-145 [1]; Homo sapiens, DU-145): 0.14 µM
Compound: CCNCCCNC/C=C/CNCCCNCC

IC50 (A549; Homo sapiens, A549): 0.25 µM
IC50 (DU-145 [1]; Homo sapiens, DU-145): 0.05 µM
Compound: CCNCCCNC/C=C\CNCCCNCC
Concentration (nM (10e6*cells)-1) (DU-145 [2]): 0.03
Concentration (nM (10e6*cells)-1) (DU-145 [3]): 0.06
Concentration (nM (10e6*cells)-1) (DU-145 [4]): 1.73
Concentration (nM (10e6*cells)-1) (DU-145 [5]): 0.02
Concentration (nM (10e6*cells)-1) (DU-145 [6]): 1.79
Concentration (nM (10e6*cells)-1) (DU-145 [7]): 0.02
Concentration (nM (10e6*cells)-1) (DU-145 [8]): 0.03
Concentration (nM (10e6*cells)-1) (DU-145 [9]): 0.04
Concentration (nM (10e6*cells)-1) (DU-145 [10]): 2.54
Concentration (nM (10e6*cells)-1) (DU-145 [11]): 1.71
Concentration (nM (10e6*cells)-1) (DU-145 [12]): 0.07
Concentration (nM (10e6*cells)-1) (DU-145 [13]): 0.09
Concentration (nM (10e6*cells)-1) (DU-145 [14]): 2.76
Concentration (nM (10e6*cells)-1) (DU-145 [15]): 0.04
Concentration (nM (10e6*cells)-1) (DU-145 [16]): 0.11
Concentration (nM (10e6*cells)-1) (DU-145 [17]): 2.99

IC50 (A549): 0.25 µM
IC50 (DU-145 [1]): 0.06 µM
IC50 (HT-29): 1.4 µM
IC50 (PC-3): 12.4 µM
Compound: CCNCCCNCC1CC1CNCCCNCC (stereo in doubt; 5)

IC50 (A549): 0.12 µM
IC50 (DU-145 [1]): 0.02 µM
Compound: CCNCCCNCC1CC1CNCCCNCC (stereo in doubt; 9)
IC50 (U-251): 0.1 µM

IC50 (DU-145 [1]): 0.01 µM
IC50 (HT-29; Homo sapiens, HT-29): 1.6 µM
IC50 (MCF7): > 31.2 µM
Compound: CCNCCCNCC1CCC1CNCCCNCC (stereo in doubt; 15) [listing 1 of 2 here]
IC50 (U-251): 0.12 µM

Compound: CCNCCCNCC1CCC1CNCCCNCC (stereo in doubt; 15) [listing 2 of 2 here]
Concentration (nM (10e6*cells)-1) (DU-145 [2]): 0.031
Concentration (nM (10e6*cells)-1) (DU-145 [3]): 0.036
Concentration (nM (10e6*cells)-1) (DU-145 [4]): 1.6
Concentration (nM (10e6*cells)-1) (DU-145 [5]): 0.06
Concentration (nM (10e6*cells)-1) (DU-145 [6]): 2.13
Concentration (nM (10e6*cells)-1) (DU-145 [7]): 0.15
Concentration (nM (10e6*cells)-1) (DU-145 [8]): 0.05
Concentration (nM (10e6*cells)-1) (DU-145 [9]): 0.07
Concentration (nM (10e6*cells)-1) (DU-145 [10]): 1.84
Concentration (nM (10e6*cells)-1) (DU-145 [11]): 2.1
Concentration (nM (10e6*cells)-1) (DU-145 [12]): 0.2
Concentration (nM (10e6*cells)-1) (DU-145 [13]): 0.49
Concentration (nM (10e6*cells)-1) (DU-145 [14]): 1.75
Concentration (nM (10e6*cells)-1) (DU-145 [15]): 0.081
Concentration (nM (10e6*cells)-1) (DU-145 [16]): 0.162
Concentration (nM (10e6*cells)-1) (DU-145 [17]): 3.54

IC50 (DU-145 [1]): 0.05 µM
IC50 (PC-3): > 31.2 µM
Compound: CCNCCCNCC1CCC1CNCCCNCC (stereo in doubt; 19)

IC50 (A549; Homo sapiens, A549): 0.2 µM
IC50 (DU-145 [1]; Homo sapiens, DU-145): 0.04 µM
IC50 (HT-29; Homo sapiens, HT-29): 0.43 µM
IC50 (MCF7): 0.55 µM
IC50 (PC-3; Homo sapiens, PC-3): 0.24 µM
Compound: CCNCCCNCCCCNCCCNCC [BIS(ETHYL)SPERMINE]
IC50 (U-251): 0.2 µM
